Test results taken from patent US20250002475A1 (EPICS THERAPEUTICS, priority 2023, published 2025).
pIC50: −log10 of the molar value.

Legend:
Caov-3 cells = experiment: Caov-3 cellular viability assay (ATP-Lite, 72 h); format: cell-based; conditions: Homo sapiens, ATP-Lite luminescence, % viability relative to DMSO
Procedure: Caov-3 cell line was purchased from ATCC (ATCC® HTB-75™). Cells were isolated from the ovary of a ovarian cancer patient.
Caov-3 cells are cultured in DMEM (ATCC 30-2002) containing 10% heat-inactivated and 0.22 μm filtered FBS (Gibco 10270-106). The cells are seeded at 2.5E+4cell/cm^2 within the recommended subcultivation ratio of 1:3 to 1:6, as stated on the certificate of analysis issues by the provider of the cells.
(§1) Cellular viability assay: Caov-3 cells were plated (50 μL) in 96-well cell culture microplates (PS, F-Bottom black, Cellstar, Greiner 655086) at final concentration of 10000 cells/well. The compounds of the invention were dissolved in DMSO, and a titration curve was generated at 1000× final concentration. Compounds were then diluted 500× in tissue culture medium (RPMI-1640, 10% FBS). Then 50 μl of test compound were added to Caov-3 cells in a final DMSO concentration of 0.1%, final volume 100 μl. A gas permeable sealing membrane was applied to the plate to prevent evaporation (Breathe-Easy sealing membrane, Sigma Z380059-1PK) and cells were incubated for 72 h at 37° C., 5% CO2, 80% RH. After 72 h of treatment, the plates were taken out of the incubator and left for a few minutes at room temperature. 100 μl of the reconstituted reagent ATP-Lite One Step (Perkin Elmer, 6016739) were added to each well. The plates were shaken for 2 min at 700 rpm and placed in the dark for 10 minutes at room temperature before measurement of luminescence intensity with Envision instrument. The raw data were expressed in RLU. Results were expressed in % of viability relative to DMSO control and an IC50 was calculated based on the concentration-response profile of individual compounds.

[1] = biological target: T1, recombinant METTL3/METTL14 complex (Homo sapiens, UniProt Q86U44); experiment: METTL3/14 Scintillation Proximity Assay (SPA), RNA methyltransferase activity; format: biochemical; conditions: 5.31 nM METTL3/14 complex, 250 nM RNA substrate, 1 μM 3H-SAM, 90 min; for compounds marked * best of the two separated forms
T1 construct: purchased Active Motif 311970; host or cells: Sf9 cells
T1 sequence (Q86U44 whole entry): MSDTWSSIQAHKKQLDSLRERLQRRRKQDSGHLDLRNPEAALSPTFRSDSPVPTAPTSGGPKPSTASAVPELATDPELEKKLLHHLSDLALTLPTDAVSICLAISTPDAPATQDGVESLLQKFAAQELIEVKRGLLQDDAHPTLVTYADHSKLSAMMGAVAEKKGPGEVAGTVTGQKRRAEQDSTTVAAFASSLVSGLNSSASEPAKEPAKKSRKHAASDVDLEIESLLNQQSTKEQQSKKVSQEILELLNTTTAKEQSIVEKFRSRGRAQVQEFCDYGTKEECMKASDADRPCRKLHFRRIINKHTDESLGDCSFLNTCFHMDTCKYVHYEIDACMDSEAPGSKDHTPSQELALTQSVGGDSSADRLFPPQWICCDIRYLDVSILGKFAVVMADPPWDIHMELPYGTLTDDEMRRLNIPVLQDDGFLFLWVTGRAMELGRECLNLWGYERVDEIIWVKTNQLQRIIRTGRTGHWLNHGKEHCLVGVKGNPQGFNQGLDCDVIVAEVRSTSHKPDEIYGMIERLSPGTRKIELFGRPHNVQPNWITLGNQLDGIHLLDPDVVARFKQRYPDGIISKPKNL
T1 sequence (Q9HCE5 whole entry partner): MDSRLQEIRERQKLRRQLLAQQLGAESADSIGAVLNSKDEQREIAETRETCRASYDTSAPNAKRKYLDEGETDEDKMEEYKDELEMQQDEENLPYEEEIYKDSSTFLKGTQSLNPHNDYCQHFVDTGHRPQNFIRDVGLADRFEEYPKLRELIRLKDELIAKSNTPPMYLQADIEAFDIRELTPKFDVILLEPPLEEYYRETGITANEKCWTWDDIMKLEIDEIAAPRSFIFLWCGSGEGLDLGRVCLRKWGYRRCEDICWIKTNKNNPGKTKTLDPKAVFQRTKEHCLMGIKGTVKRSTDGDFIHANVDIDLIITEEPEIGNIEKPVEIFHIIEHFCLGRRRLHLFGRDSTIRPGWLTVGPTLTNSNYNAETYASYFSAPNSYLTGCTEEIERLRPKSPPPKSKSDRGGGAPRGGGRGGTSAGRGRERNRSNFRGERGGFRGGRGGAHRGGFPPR

Kasumi-1 cells = experiment: Kasumi-1 cellular viability assay (ATP-Lite, 72 h); format: cell-based; conditions: Homo sapiens, ATP-Lite luminescence, % viability relative to DMSO
Procedure: Kasumi-1 cell line was purchased from ATCC (ATCC® CRL2724™). Cells were isolated from the peripheral blood of a child with acute myeloid leukemia (AML FAB M2) (in 2nd relapse after bone marrow transplantation) in 1989. Most cells are round. Kasumi-1 cells are observed to grow individually or in small clumps in suspension.
Kasumi-1 cells are cultured in RPMI-1640 (Gibco A10491-01) containing 10% heat-inactivated and 0.22 μm filtered FBS (Gibco 10270-106) at a density of 3E+5 and 3E+6 viable cell/mL following the certificate of analysis.
as §1, with “assay: Kasumi-1” for “assay: Caov-3”, “of 15000” for “of 10000”, “to Kasumi-1” for “to Caov-3”, “After 72h” for “After 72 h”, “6016739) was” for “6016739) were”

Compound | pIC50 [1] | pIC50 (Caov-3 cells) | pIC50 (Kasumi-1 cells)
CC(N[C@@H]1CCCN(c2ccc(C3(C(=O)Nc4cc(=O)n5ccccc5n4)COC3)nc2)C1)C1CCC1 (mixture of isomers) [Compound 336, 3-(5-((3R)-3-((1-cyclobutylethyl)amino)piperidin-1-yl)pyridin-2-yl)-N-(4-oxo-4H-pyrido[1,2-a]pyrimidin-2-yl)oxetane-3-carboxamide] | ≥ 7.30 | ≥ 6.30 | ≥ 6.30
O=C(NC(c1ccc(N2CCC[C@@H](NCC3CCC3)C2)nn1)C(F)(F)F)c1cc(=O)n2ccccc2n1 (single isomer, unassigned) [Compound 065] | ≥ 7.30 | 5.30 to 6.30 | < 5.30
COc1cc(-c2cn(Cc3ccc(N4CCC[C@@H](N(C)CC5CCC5)C4)nn3)nn2)c2cn[nH]c2c1 [Compound 022, (R)-N-(cyclobutylmethyl)-1-(6-((4-(6-methoxy-1H-indazol-4-yl)-1H-1,2,3-triazol-1-yl)methyl)pyridazin-3-yl)-N-methylpiperidin-3-amine] |  | < 5.30 | 5.30 to 6.30
COc1cc(-c2cn(Cc3ccc(N4CCC[C@@H](NC5CCCC5)C4)nn3)nn2)c2cn[nH]c2c1 [Compound 023, (R)-N-cyclopentyl-1-(6-((4-(6-methoxy-1H-indazol-4-yl)-1H-1,2,3-triazol-1-yl)methyl)pyridazin-3-yl)piperidin-3-amine] |  | 5.30 to 6.30 | 5.30 to 6.30
COc1cc(-c2cn(Cc3ncc(N4CCCC(NCC5CCC5)C4)cn3)nn2)c2cn[nH]c2c1 (stereo not shown) [Compound 043, N-(cyclobutylmethyl)-1-(2-((4-(6-methoxy-1H-indazol-4-yl)-1H-1,2,3-triazol-1-yl)methyl)pyrimidin-5-yl)piperidin-3-amine] | ≥ 7.30 |  | < 5.30
COc1cc(-c2cn(Cc3cnc(N4CCCC(NCC5CCC5)C4)nc3)nn2)c2cn[nH]c2c1 (stereo not shown) [Compound 046, N-(cyclobutylmethyl)-1-(5-((4-(6-methoxy-1H-indazol-4-yl)-1H-1,2,3-triazol-1-yl)methyl)pyrimidin-2-yl)piperidin-3-amine] | 6.30 to 7.30 |  | < 5.30
COc1cc(-c2cn(Cc3ccc(N4CCCC(NCC5CCC5)C4)c(=O)[nH]3)nn2)c2cn[nH]c2c1 (stereo not shown) [Compound 052, 3-(3-((cyclobutylmethyl)amino)piperidin-1-yl)-6-((4-(6-methoxy-1H-indazol-4-yl)-1H-1,2,3-triazol-1-yl)methyl)pyridin-2(1H)-one] | 6.30 to 7.30 |  | < 5.30
c1ncc(C2CC2)cc1-c1cn(C2(c3ccc(N4CCC[C@H](NCC5CC5)C4)cn3)COC2)nn1 [Compound 351, (S)—N-(cyclopropylmethyl)-1-(6-(3-(4-(5-cyclopropylpyridin-3-yl)-1H-1,2,3-triazol-1-yl)oxetan-3-yl)pyridin-3-yl)piperidin-3-amine] | 6.30 to 7.30 |  | 5.30 to 6.30
CC(c1ccc(N2CCC[C@@H](NCC3CC3)C2)nn1)c1nnc(-c2cncc(N3CCCC3)n2)s1 (stereo partly drawn) [Compound 353, (3R)—N-(cyclopropylmethyl)-1-(6-(1-(5-(6-(pyrrolidin-1-yl)pyrazin-2-yl)-1,3,4-thiadiazol-2-yl)ethyl)pyridazin-3-yl)piperidin-3-amine] | ≥ 7.30 | ≥ 6.30 | 

More lines, main results first:

pIC50 [1] | Compound | pIC50 (Caov-3 cells) | pIC50 (Kasumi-1 cells)
≥ 7.30 | COc1cc(-c2cn(C(C)n3ccc(N4CCC[C@@H](NCC5CCC5)C4)cc3=O)nn2)c2cn[nH]c2c1 (mixture of isomers) [Compound 050, 4-((R)-3-((cyclobutylmethyl)amino)piperidin-1-yl)-1-(1-(4-(6-methoxy-1H-indazol-4-yl)-1H-1,2,3-triazol-1-yl)ethyl)pyridin-2(1H)-one] | ≥ 6.30 | ≥ 6.30
≥ 7.30 | COc1cncc(-c2cn(C(C)c3ccc(N4CCC[C@@H](NCC5CCC5)C4)cc3)nn2)c1 (mixture of isomers) [Compound 076, (3R)-N-(cyclobutylmethyl)-1-(4-(1-(4-(5-methoxypyridin-3-yl)-1H-1,2,3-triazol-1-yl)ethyl)phenyl)piperidin-3-amine] | 5.30 to 6.30 | 5.30 to 6.30
≥ 7.30 | COc1cnnc(-c2cn(C(C)n3ccc(N4CCC[C@@H](NCC5CCC5)C4)cc3=O)nn2)c1 (mixture of isomers) [Compound 093, 4-((R)-3-((cyclobutylmethyl)amino)piperidin-1-yl)-1-(1-(4-(5-methoxypyridazin-3-yl)-1H-1,2,3-triazol-1-yl)ethyl)pyridin-2(1H)-one] | 5.30 to 6.30 | 5.30 to 6.30
≥ 7.30 | CC(c1cnn(-c2cncc(N(C)C)c2)c1)n1ccc(N2CCC[C@@H](NCC3CCC3)C2)cc1=O (mixture of isomers) [Compound 156, 4-((R)-3-((cyclobutylmethyl)amino)piperidin-1-yl)-1-(1-(1-(5-(dimethylamino)pyridin-3-yl)-1H-pyrazol-4-yl)ethyl)pyridin-2(1H)-one] | ≥ 6.30 | ≥ 6.30
≥ 7.30 | CC(n1cnc(-c2cncc(N3CCCC3)c2)c1)n1ccc(N2CCC[C@@H](NCC3CC3)C2)cc1=O (mixture of isomers) [Compound 252, 4-((R)-3-((cyclopropylmethyl)amino)piperidin-1-yl)-1-(1-(4-(5-(pyrrolidin-1-yl)pyridin-3-yl)-1H-imidazol-1-yl)ethyl)pyridin-2(1H)-one] | ≥ 6.30 | ≥ 6.30
≥ 7.30 | COc1cc(-c2cn(C(C)c3ccc(N4CCC[C@@H](NCC5CCC5)C4)nn3)nn2)c2cn[nH]c2c1 (single isomer, unassigned) [Compound 037] | ≥ 6.30 | ≥ 6.30
≥ 7.30 | CC(NC(=O)c1cc(=O)n2ccccc2n1)c1ccc(N2CCC[C@@H](NCC3CCC3)C2)nn1 (single isomer, unassigned) [Compound 051] | 5.30 to 6.30 | < 5.30
≥ 7.30 | COc1cncc(-c2cn(C(C)n3ccc(N4CCC[C@@H](NCC5CCC5)C4)cc3=O)nn2)c1 (single isomer, unassigned) [Compound 055] | ≥ 6.30 | ≥ 6.30
≥ 7.30 | CC(NC(=O)c1cc(=O)n2ccccc2n1)c1ccc(N2CCC[C@@H](NCC3CCC3)C2)cn1 (single isomer, unassigned) [Compound 058] | 5.30 to 6.30 | 5.30 to 6.30
≥ 7.30 | COc1cncc(-c2cn(C(C)c3ccc(N4CCC[C@@H](NCC5CCC5)C4)nn3)nn2)c1 (single isomer, unassigned) [Compound 066] | 5.30 to 6.30 | 5.30 to 6.30
≥ 7.30 | COc1cncc(-c2cn(C(C)c3ccc(N4CCC[C@@H](NCC5CCC5)C4)nc3)nn2)c1 (single isomer, unassigned) [Compound 071] | 5.30 to 6.30 | 5.30 to 6.30
≥ 7.30 | COc1cncc(-c2cn(C(C)c3ccc(N4CCC[C@@H](NCC5CCC5)C4)cn3)nn2)c1 (single isomer, unassigned) [Compound 073] | 5.30 to 6.30 | 5.30 to 6.30
≥ 7.30 | CCC(NC(=O)c1cc(=O)n2ccccc2n1)c1ccc(N2CCC[C@@H](NCC3CCC3)C2)nn1 (single isomer, unassigned) [Compound 083] | 5.30 to 6.30 | < 5.30
6.30 to 7.30 | COc1cc(-c2cn(Cn3cnc(N4CCC[C@@H](NCC5CCC5)C4)cc3=O)nn2)c2cn[nH]c2c1 [Compound 041, (R)-6-(3-((cyclobutylmethyl)amino)piperidin-1-yl)-3-((4-(6-methoxy-1H-indazol-4-yl)-1H-1,2,3-triazol-1-yl)methyl)pyrimidin-4(3H)-one] |  | < 5.30
